According to article PMC6076408, “Differential modulation of human GABAC-ρ1 receptor by sulfur-containing compounds structurally related to taurine” (BMC Neuroscience, 2018):

Legend:
Assay type in all cases: cell-based
human GABAC-ρ1 receptor [1] = target: T1, human GABAC-ρ1 receptor (Homo sapiens, UniProt P24046); test: Two-microelectrode voltage-clamp: currents activated by GABA or SCC-tau in oocytes expressing GABAC-ρ1R; details: for Hill coefficient (nH) / EC50: agonist alone; for Hill coefficient (nH): dose-response relationship; for activation time of the currents (τact) / deactivation time (τdeac): currents activated by GABA, Hypo or Homo; for EC50: Xenopus laevis oocytes clamped at −60 mV
T1 construct: expressed in transfected cells; host or cells: Xenopus laevis oocytes (mRNA injection)
Description: (§1) All the animals were handled in accordance with guidelines of the National Institutes of Health Guide for Care and Use of Laboratory Animals and with the approval of the Institutional Animal Care and Use Committee of the National University of Mexico. We used Ethyl 3-aminobenzoate methanesulfonate (MS-222) at 0.17% for 30 min, to anesthetize the Xenopus laevis frogs. The oocytes were manually removed and enzymatically defolliculated at room temperature using collagenase type I (0.3 μg/μl) for 45 min. Later, oocytes were kept in Barth’s medium (in mM): 88, NaCl; 1, KCl; 0.33, […]; 0.41, CaCl2; 0.82, MgSO4; 2.4, NaHCO3; 5, HEPES; pH 7.4 and 0.1 mg/ml gentamicin sulfate. After 24 h, 0.5 μg/μl of human GABAC-ρ1R mRNA was injected in vegetal hemisphere of the oocyte, and electrophysiological recordings were obtained 2–3 days after injection.
(§2) Oocytes were placed in a chamber, with a volume of 500 μl, and impaled with two microelectrodes previously filled with 3 M KCl (0.5–2.5 MΩ) and clamped at − 60 mV. […] All recordings were done at 20–23 °C in a chamber continuously perfused at 5–10 ml/min of Ringer solution (in mM): 115, NaCl; 2, KCl; 1.8, CaCl2; 5, HEPES, pH 7.4. All drugs were purchased from SIGMA-ALDRICH (San Louis Missouri, USA). […] The pH of all solutions was adjusted to 7.4.
Results are reported as mean ± S.E. of the values obtained from several cells, each value being the average of measurements in different cells. Data from each experiment were collected from at least seven oocytes. Agonist concentration–response curves were constructed by measuring the maximum response evoked by each agonist concentration. […] The half-inhibitory concentration (IC50) of Homo was estimated by fitting the following equation: A=Amax/(1+10^[[agonist]-logEC50) . Differences among groups were statistically analyzed by ANOVA and Tukey–Kramer post-test, and were considered significant when P < 0.05. […] Differences between groups were statistically analyzed by ANOVA and a Tukey–Kramer post-test, and were considered significant at the level P < 0.05.

human GABAC-ρ1 receptor [2] = target: T1, human GABAC-ρ1 receptor; test: Voltage-clamp: modulation of GABA-induced currents by co-applied SCC-tau; details: for IC50: read-out: IC50 (decrease of GABA-activated current); for EC50: EC50 (potentiation of GABA current)
Description: as §1
as §2, with “Membrane currents elicited by GABA and SCC-tau were recorded using the two-microelectrode voltage-clamp technique. Oocytes” for “Oocytes”
(§3) Results are reported as mean ± S.E. of the values obtained from several cells, each value being the average of measurements in different cells. Data from each experiment were collected from at least seven oocytes. Agonist concentration–response curves were constructed by measuring the maximum response evoked by each agonist concentration. […] The half-inhibitory concentration (IC50) of Homo was estimated by fitting the following equation: A=Amax/(1+10^[[agonist]-logEC50) . Differences among groups were statistically analyzed by ANOVA and Tukey–Kramer post-test, and were considered significant when P < 0.05. Control responses to GABA were obtained before and after each drug application to account for possible shifts in the amplitude of the control current. To determine the time constants for the activation (τact) and deactivation (τdeac) of GABA-, Homo- and Hypo-currents responses, a decay function of the form: I(τ) = exp(− t/τ d) + C, where I is the current and t is time, was fit to the experimental data (Origin 6.0 software; Northampton, MA). Differences between groups were statistically analyzed by ANOVA and a Tukey–Kramer post-test, and were considered significant at the level P < 0.05.

human GABAC-ρ1 receptor [3] = target: T1, human GABAC-ρ1 receptor; test: Voltage-clamp: inhibition of GABA- and SCC-tau-induced currents by TPMPA and picrotoxin
Description: as §1
as §2, with “Membrane currents elicited by GABA and SCC-tau were recorded using the two-microelectrode voltage-clamp technique. Oocytes” for “Oocytes”
as §3

[4] = receptor activated by 3 µM GABA
[5] = receptor activated by 70 µM Homo
[6] = receptor activated by 3 mM Hypo

T1 sequence (P24046 22-479): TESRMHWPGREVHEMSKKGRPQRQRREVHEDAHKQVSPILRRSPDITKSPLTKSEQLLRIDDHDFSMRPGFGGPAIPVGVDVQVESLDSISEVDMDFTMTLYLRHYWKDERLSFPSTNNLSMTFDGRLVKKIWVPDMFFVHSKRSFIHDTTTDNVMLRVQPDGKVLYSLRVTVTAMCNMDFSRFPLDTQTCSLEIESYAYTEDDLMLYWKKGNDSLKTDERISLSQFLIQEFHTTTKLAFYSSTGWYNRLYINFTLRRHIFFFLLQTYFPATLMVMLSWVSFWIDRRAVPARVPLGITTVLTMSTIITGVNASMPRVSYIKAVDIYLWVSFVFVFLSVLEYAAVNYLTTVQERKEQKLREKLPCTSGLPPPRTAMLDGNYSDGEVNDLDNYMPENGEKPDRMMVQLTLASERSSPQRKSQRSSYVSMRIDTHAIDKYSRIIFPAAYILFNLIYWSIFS

NCCCC(=O)O [GABA, γ-aminobutyric acid]
Hill coefficient (nH) (human GABAC-ρ1 receptor [1]): 1.5
activation time of the currents (τact) (human GABAC-ρ1 receptor [1]): 1 ± 0.2 min
deactivation time (τdeac) (human GABAC-ρ1 receptor [1]): 1.7 ± 0.5 min

NCCCS(=O)(=O)O [Homo, 3-Aminopropane-1-sulfonic acid]
Hill coefficient (nH) (human GABAC-ρ1 receptor [1]): 1.0
EC50 (human GABAC-ρ1 receptor [1]): 70 ± 1.1 µM
activation time of the currents (τact) (human GABAC-ρ1 receptor [1]): 1.8 ± 0.2 min
deactivation time (τdeac) (human GABAC-ρ1 receptor [1]): 6.7 ± 2.2 min
IC50 (human GABAC-ρ1 receptor [2]; co-applied with 1.5 µM GABA): 40 ± 1 µM
IC50 (human GABAC-ρ1 receptor [2]; co-applied with 3 µM GABA): 90 ± 1.5 µM
IC50 (human GABAC-ρ1 receptor [2]; co-applied with 6 µM GABA): 410 ± 2.9 µM

NCCS(=O)O [Hypo, 2-Aminoethanesulfinic acid]
Hill coefficient (nH) (human GABAC-ρ1 receptor [1]): 2.2
EC50 (human GABAC-ρ1 receptor [1]): 3000 ± 1500 µM
activation time of the currents (τact) (human GABAC-ρ1 receptor [1]): 1.5 ± 0.1 min
deactivation time (τdeac) (human GABAC-ρ1 receptor [1]): 3.4 ± 1.1 min
EC50 (human GABAC-ρ1 receptor [2]; co-applied with 1.5 µM GABA): 87 ± 1.5 µM
EC50 (human GABAC-ρ1 receptor [2]; co-applied with 3 µM GABA): 170 ± 1.7 µM
EC50 (human GABAC-ρ1 receptor [2]; co-applied with 6 µM GABA): 480 ± 2.1 µM

O=S(=O)(O)CCO [IA, 2-hydroxyethanesulfonic acid]
activation of current (effect on receptor) (human GABAC-ρ1 receptor [1]; compound perfused alone at the concentrations tested): did not show any affect
effect on GABA-induced currents (human GABAC-ρ1 receptor [2]; co-application with GABA, data not shown): did not observe any effect

CP(=O)(O)C1=CCNCC1 [TPMPA, Methyl(1,2,5,6-tetrahydropyridine-4-yl) phosphinic acid]
IC50 (human GABAC-ρ1 receptor [3]; [4]): 1.2 ± 0.1 µM
IC50 (human GABAC-ρ1 receptor [3]; [5]): 1.4 ± 0.1 µM
IC50 (human GABAC-ρ1 receptor [3]; [6]): 2 ± 0.2 µM

picrotoxin
IC50 (human GABAC-ρ1 receptor [3]; [4]): 100 ± 0.1 µM
IC50 (human GABAC-ρ1 receptor [3]; [5]): 105 ± 0.3 µM
IC50 (human GABAC-ρ1 receptor [3]; [6]): 100 ± 0.8 µM
